# Laboratory results: ChEMBL document CHEMBL3885861, “Open TG-GATES”
# Species: Rattus norvegicus
# Test: Open TG-GATES - Regimen: Single
# Type: toxicity, organism-based, Sprague-Dawley
# Design: regimen Single, gender Male, age 6 weeks
# Conditions: in vivo, po, 100 mg/kg, route gavage, dose level Low; for APTT / Bas / Eos / Fbg / Hb / Ht / Lym / MCH / MCHC / MCV / Mono / Neu / PT / Plat / RBC / Ret / WBC: tissue Blood; for KIDNEY_L / KIDNEY_R / KIDNEY_TOTAL: tissue Kidney; for LIVER: tissue Liver; for A/G / ALP / ALT / AST / BUN / CRE / Ca / Cl / DBIL / GLC / IP / K / LDH / Na / PL / RALB / TBIL / TC / TG / TP / gamma-GTP: tissue Plasma
structure (smiles),measurement,setting,value
CCc1cc(C(N)=S)ccn1 [ETHIONAMIDE],TERMINAL_BW,3 h,224.2 g
same,APTT,3 h,16.6 s
same,Bas,3 h,0%
same,Eos,3 h,1%
same,Fbg,3 h,211.2 mg/dL
same,Hb,3 h,13.8 g/dL
same,Ht,3 h,40.6%
same,Lym,3 h,73.6%
same,MCH,3 h,21.8 pg
same,MCHC,3 h,34%
same,MCV,3 h,64 fL
same,Mono,3 h,8.4%
same,Neu,3 h,17.4%
same,PT,3 h,12.4 s
same,Plat,3 h,119.3 x10_4/uL
same,RBC,3 h,635.8 x10_4/ul
same,Ret,3 h,7.1%
same,WBC,3 h,90.5 x10_2/uL
same,KIDNEY_L,3 h,1 g
same,KIDNEY_R,3 h,1 g
same,KIDNEY_TOTAL,3 h,1.9 g
same,LIVER,3 h,10.7 g
same,A/G,3 h,1.9
same,ALP,3 h,802.2 IU/L
same,ALT,3 h,36 IU/L
same,AST,3 h,68.6 IU/L
same,BUN,3 h,15 mg/dL
same,CRE,3 h,0.7 mg/dL
same,Ca,3 h,11 mg/dL
same,Cl,3 h,103 meq/L
same,DBIL,3 h,0.012 mg/dL
same,GLC,3 h,181.6 mg/dL
same,IP,3 h,9.2 mg/dL
same,K,3 h,4.4 meq/L
same,LDH,3 h,109 IU/L
same,Na,3 h,140.6 meq/L
same,PL,3 h,128.4 mg/dL
same,RALB,3 h,3.6 g/dL
same,TBIL,3 h,0.4 mg/dL
same,TC,3 h,73 mg/dL
same,TG,3 h,58 mg/dL
same,TP,3 h,5.5 g/dL
same,gamma-GTP,3 h,1.6 IU/L
same,TERMINAL_BW,6 h,229.4 g
same,APTT,6 h,17.1 s
same,Bas,6 h,0%
same,Eos,6 h,0.8%
same,Fbg,6 h,208.8 mg/dL
same,Hb,6 h,14.2 g/dL
same,Ht,6 h,42.1%
same,Lym,6 h,77.6%
same,MCH,6 h,22.1 pg
same,MCHC,6 h,33.7%
same,MCV,6 h,65.7 fL
same,Mono,6 h,8%
same,Neu,6 h,14.2%
same,PT,6 h,13.4 s
same,Plat,6 h,114.8 x10_4/uL
same,RBC,6 h,640.6 x10_4/ul
same,Ret,6 h,7.5%
same,WBC,6 h,84 x10_2/uL
same,KIDNEY_L,6 h,1 g
same,KIDNEY_R,6 h,1 g
same,KIDNEY_TOTAL,6 h,2 g
same,LIVER,6 h,10.8 g
same,A/G,6 h,1.8
same,ALP,6 h,908.4 IU/L
same,ALT,6 h,31.6 IU/L
same,AST,6 h,77.4 IU/L
same,BUN,6 h,15.6 mg/dL
same,CRE,6 h,0.5 mg/dL
same,Ca,6 h,11 mg/dL
same,Cl,6 h,105.4 meq/L
same,DBIL,6 h,0.004 mg/dL
same,GLC,6 h,187.4 mg/dL
same,IP,6 h,9.8 mg/dL
same,K,6 h,4.5 meq/L
same,LDH,6 h,123.4 IU/L
same,Na,6 h,140.4 meq/L
same,PL,6 h,126 mg/dL
same,RALB,6 h,3.5 g/dL
same,TBIL,6 h,0.4 mg/dL
same,TC,6 h,69.6 mg/dL
same,TG,6 h,54.4 mg/dL
same,TP,6 h,5.5 g/dL
same,gamma-GTP,6 h,1 IU/L
same,TERMINAL_BW,9 h,222.6 g
same,APTT,9 h,18.1 s
same,Bas,9 h,0%
same,Eos,9 h,1.4%
same,Fbg,9 h,210.2 mg/dL
same,Hb,9 h,14.2 g/dL
same,Ht,9 h,42.2%
same,Lym,9 h,70%
same,MCH,9 h,21.7 pg
same,MCHC,9 h,33.7%
same,MCV,9 h,64.4 fL
same,Mono,9 h,8.6%
same,Neu,9 h,20%
same,PT,9 h,14.1 s
same,Plat,9 h,116.8 x10_4/uL
same,RBC,9 h,655.2 x10_4/ul
same,Ret,9 h,8.3%
same,WBC,9 h,79.2 x10_2/uL
same,KIDNEY_L,9 h,1 g
same,KIDNEY_R,9 h,1 g
same,KIDNEY_TOTAL,9 h,2 g
same,LIVER,9 h,9.8 g
same,A/G,9 h,2
same,ALP,9 h,756.6 IU/L
same,ALT,9 h,33.8 IU/L
same,AST,9 h,73.4 IU/L
same,BUN,9 h,15 mg/dL
same,CRE,9 h,0.6 mg/dL
same,Ca,9 h,10.7 mg/dL
same,Cl,9 h,105.2 meq/L
same,DBIL,9 h,0.018 mg/dL
same,GLC,9 h,205.4 mg/dL
same,IP,9 h,10.7 mg/dL
same,K,9 h,4.5 meq/L
same,LDH,9 h,95.6 IU/L
same,Na,9 h,142 meq/L
same,PL,9 h,100.4 mg/dL
same,RALB,9 h,3.5 g/dL
same,TBIL,9 h,0.4 mg/dL
same,TC,9 h,53.4 mg/dL
same,TG,9 h,28.4 mg/dL
same,TP,9 h,5.3 g/dL
same,gamma-GTP,9 h,1.4 IU/L
same,TERMINAL_BW,24 h,231 g
same,APTT,24 h,16.3 s
same,Bas,24 h,0%
same,Eos,24 h,1.2%
same,Fbg,24 h,214.8 mg/dL
same,Hb,24 h,14.3 g/dL
same,Ht,24 h,42.3%
same,Lym,24 h,62.4%
same,MCH,24 h,21.6 pg
same,MCHC,24 h,33.8%
same,MCV,24 h,63.8 fL
same,Mono,24 h,12.8%
same,Neu,24 h,23.8%
same,PT,24 h,12.2 s
same,Plat,24 h,117.2 x10_4/uL
same,RBC,24 h,663 x10_4/ul
same,Ret,24 h,8%
same,WBC,24 h,110 x10_2/uL
same,KIDNEY_L,24 h,1.1 g
same,KIDNEY_R,24 h,1.1 g
same,KIDNEY_TOTAL,24 h,2.1 g
same,LIVER,24 h,11.7 g
same,A/G,24 h,1.9
same,ALP,24 h,884.8 IU/L
same,ALT,24 h,38.6 IU/L
same,AST,24 h,80.4 IU/L
same,BUN,24 h,16.4 mg/dL
same,CRE,24 h,0.6 mg/dL
same,Ca,24 h,10.9 mg/dL
same,Cl,24 h,104.6 meq/L
same,DBIL,24 h,0.026 mg/dL
same,GLC,24 h,193.2 mg/dL
same,IP,24 h,7.8 mg/dL
same,K,24 h,4.6 meq/L
same,LDH,24 h,90.4 IU/L
same,Na,24 h,141.4 meq/L
same,PL,24 h,136 mg/dL
same,RALB,24 h,3.6 g/dL
same,TBIL,24 h,0.3 mg/dL
same,TC,24 h,67.6 mg/dL
same,TG,24 h,103.8 mg/dL
same,TP,24 h,5.5 g/dL
same,gamma-GTP,24 h,1.8 IU/L
